Assay results taken from patent US20110245334A1, “USE OF RACEMATES OF PINOCEMBRIN IN PREPARING MEDICAMENTS FOR TREATING STROKE” (CSPC Zhonggi Pharmaceutical Technology (Shijiazhuang) Co. …, priority 2008, published 2011).

Key:
plasma fibrinogen = assay: Plasma fibrinogen assay (ELISA) in SHRSP; format: in vivo, rat; parameters: Plasma fibrinogen: unit not given here; settings: SHRSP rats
Experimental: The mixture was centrifuged for 15 min at 3000 rpm and plasma fibrinogen in liquid supernatant was determined by euzymelinked immunosorbent assay (ELISA).

plasma ET-1 = assay: Plasma ET-1 (radioimmunoassay) in SHRSP; format: in vivo, rat; parameters: ET-1 content: unit not given here; settings: SHRSP rats; for ET-1 content: plasma
Experimental: 5) Blood of 2 mL was dropped rapidly in a cuvette with 30 μL 7.5% EDTA-2Na and 40 μL aprotinin and mixed. After centrifuged for 5 min at 3000 rpm, plasma ET-1 in liquid supernatant was determined by isotope radioimmunoassay.

tMCAO rats [1] = assay: Neurobehavioral examination (Bederson's score), tMCAO time window study; format: in vivo, rat; settings: 2 hours ischemia and 24 hours reperfusion
Experimental: (§1) 1. In the test, transient middle cerebral artery occlusion (tMCAO) model of rats was adopted. The reperfusion was performed after focal cerebral ischemia for 2 hours so as to inspect therapeutic time window of pinocembrin after focal cerebral ischemia. The rats were administered by pinocembrin racemate (1 mg/kg, 5 mg/kg, intravenous injection) after reperfusion 1 hour, 4 hours and 6 hours (i.e., ischemia 3 hour, 6 hours and 8 hours). (R)-pinocembrin and (S)-pinocembrin (1 mg/kg, 5 mg/kg, intravenous injection) were administered after reperfusion 1 hour and 4 hours (i.e., ischemia 3 hour and 6 hours). The therapeutic time windows of these drugs in focal cerebral ischemia were assessed by studying their effects to neurological symptom scores, infarct sizes and brain water contents during 24 hours after tMCAO.
The CCA and ICA were clipped with artery clips. Two No. 0 surgery lines were litigated on the ECA distal end with 2-3 mm spacing and then the vascular between the two surgery lines was cut. The distal end of ECA was pulled until it formed a straight line with the ICA. An incision was cut on ECA and a nylon line was inserted through ECA into ICA. After the artery clip was loosen, the nylon line was pushed on into the brain through ICA and inserted in depth of 18.5±0.5 mm when resistance was felt slightly. The nylon line reached a smaller anterior cerebral artery through the beginning of MCA and then the blood flow obstruction in right MCA was established. the animals were kept in anesthesia during the obstruction. After 2 hours of obstruction, the nylon line was gently pulled out to ECA stub to form reperfusion. During the surgery process, the animals were irradiated by table lamp of 100 W to maintain the body temperature. The room temperature was kept in range of 23-25° C.
(§2) 2.4 Experimental Grouping and Administration • Sham operation group (intravenous injection of normal saline after 3 hours of ischemia); • Model group (intravenous injection of 50 mg/kg hydroxypropyl β-cyclodextrin after 3 hours of ischemia); • Nimodipine group (1 mg/kg, administered after 3 hours of ischemia); • Pinocembrin racemate group (1 mg/kg, 5 mg/kg, administered after 3, 6 and 8 hours of ischemia); • (R)-pinocembrin group (1 mg/kg, 5 mg/kg, administered after 3 and 6 hours of ischemia); • (S)-pinocembrin group (1 mg/kg, 5 mg/kg, administered after 3 and 6 hours of ischemia).
(§3) First administration was performed by intravenous injection, and intraperitoneal injection was carried out once 12 hours later with a dose 1.5 times of that for intravenous injection.
Neurobehavioral examination was performed respectively when the animals were awake after surgery and before the animals were put to death. Bederson's score was adopted (see details in Example 2, 1. Neurobehavioral Examination).

tMCAO rats [2] = assay: Infarct volume (TTC), tMCAO time window study; format: in vivo, rat; settings: 2 hours ischemia and 24 hours reperfusion
Experimental: as §1, §2, §3
After neurobehavioral scoring, the rats were put to death by decollation and their brain tissues were taken out quickly and put into a refrigerator of −20° C. 10 min later, the brain tissues were moved to an environment of room temperature. After the olfactory bulb, cerebellar and lower brain stem were resected, the brain tissue was cut into six continuous coronal slices with an interval of 2 mm. Then the brain slices were quickly put into 5 ml solution containing 2% TTC and incubated at a constant temperature of 37° C. and in a condition of darkness for 30 min. During the time, the brain slices were tipped every 5 min. […] Every group of brain slices were put in order and photographed. The photographs were processed by an image analysis system and the infarct areas in each slice were calculated. The infarct volume of each slice was calculated via multiplying the infarct area by thickness of slice (2 mm), and the infarct volume was the sum of infarct volumes of all slices. The infarct volume percentage was expressed as: sick-side infarct volume/total sick-side brain volume.

tMCAO rats [3] = assay: Brain water content, tMCAO time window study; format: in vivo, rat; settings: 2 hours ischemia and 24 hours reperfusion
Experimental: as §1, §2, §3
The wet weight of each animal's brain was weighted before sliced. After staining, the brain slices were dried at 105° C. for 24 hours, and the dry weight of each animal's brain was weighted. The brain water contents of animals of various groups were compared. Brain water content=(brain wet weight−brain dry weight)/brain wet weight×100%.

tMCAO rats [4] = assay: Therapeutic time window in focal cerebral ischemia-reperfusion injured rats; format: in vivo, rat; settings: tMCAO rats, 1 mg/kg, 5 mg/kg
Experimental: as §1, §2, §3

SD rats = assay: Acute toxicity, single intravenous injection; settings: single intravenous injection in SD rats
MCAO rats = assay: Nissl staining of hippocampal neurons, MCAO; format: in vivo, rat; settings: hippocampus, cerebral ischemia 24 hours
Experimental: After cerebral ischemia for 24 hours, the rats were anesthetized by intraperitoneal injection of 10% Chloral hydrate. After perfused via heart with heparinized normal saline for 10 min and 4% paraformaldehyde for 30 min, the brain tissue was taken out and moved in 4% paraformaldehyde to fix, then cut into coronal sections (6 μm) by a frozen section machine, and one section was taken out in every 20 sections to stain. The stained sections were expanded on a slide glass treated by polylysine, and then preserved in a refrigerator at −40° C.
Nissel staining: (1) the frozen section was taken out from the refrigerator and dried in room temperature; (2) put into acetone to fix for 30 min and washed by PBS for 3 times, 3 min every time; (3) dipped for 20-30 min in toluidine blue dye and then washed by water for 15 min; (4) dehydrated by ethanol in gradient manner and vitrified by xylene and mounted by a neutral gum; (5) observed under a light microscope and photographed for analysis; (6) 4 frozen sections in roughly same position for each rat were taken out and 5 vision fields in hippocampus for each section were observed under 200× light microscope (totally 20 visions per rat). The cells in vision fields were counted. The averages of ratios of the numbers in the administration groups to the number in the model group were calculated for statistical analysis.

in vivo = settings: SD, rat, iv
[5] = antihistamine, oral administration; cited from earlier work
[6] = initially injected after 3 hours of ischemia
[7] = initially injected after 6 hours of ischemia

Compound | Plasma fibrinogen (plasma fibrinogen; 3 mg/kg) | Plasma fibrinogen (plasma fibrinogen; 10 mg/kg) | Plasma fibrinogen (plasma fibrinogen; 30 mg/kg) | ET-1 content (plasma ET-1; 3 mg/kg) | ET-1 content (plasma ET-1; 10 mg/kg) | ET-1 content (plasma ET-1; 30 mg/kg) | Neurobehavioral value (tMCAO rats [1]; 1 mg/kg, 3 h) | Neurobehavioral value (tMCAO rats [1]; 1 mg/kg, 6 h) | Neurobehavioral value (tMCAO rats [1]; 5 mg/kg, 3 h) | Neurobehavioral value (tMCAO rats [1]; 5 mg/kg, 6 h) | Infarct percentage (%) (tMCAO rats [2]; 1 mg/kg, 3 h) | Infarct percentage (%) (tMCAO rats [2]; 1 mg/kg, 6 h) | Infarct percentage (%) (tMCAO rats [2]; 5 mg/kg, 3 h) | Infarct percentage (%) (tMCAO rats [2]; 5 mg/kg, 6 h) | Brain water content (%) (tMCAO rats [3]; 1 mg/kg, 3 h) | Brain water content (%) (tMCAO rats [3]; 1 mg/kg, 6 h) | Brain water content (%) (tMCAO rats [3]; 5 mg/kg, 3 h) | Brain water content (%) (tMCAO rats [3]; 5 mg/kg, 6 h) | effect on neurobehavioral injury, infarct volume and cerebral edema (tMCAO rats [4]; [6]) | effect on neurobehavioral injury, infarct volume and cerebral edema (tMCAO rats [4]; [7]) | also measured
O=C1C[C@H](c2ccccc2)Oc2cc(O)cc(O)c21 [(R)-pinocembrin] | 2.99 ± 0.13 | 2.83 ± 0.18 | 2.74 ± 0.47 | 235.4 ± 35.2 | 228.4 ± 16.9 | 198.1 ± 35.4 | 1.42 ± 0.82 | 1.86 ± 0.57 | 1.39 ± 0.72 | 1.83 ± 0.49 | 15.69 ± 7.82 | 26.33 ± 12.67 | 15.66 ± 7.88 | 25.89 ± 13.57 | 82.18 ± 0.98 | 83.36 ± 1.12 | 81.20 ± 1.03 | 83.77 ± 1.07 | significant effects | not effective | LD50 (SD rats): 347.8 (257.4˜466.3) mg/kg
pinocembrin racemate | – | – | – | – | – | – | – | – | – | – | – | – | – | – | – | – | – | – | – | – | increase of nerve cells in comparison with the model group (MCAO rats; 3 mg/kg): 11.5±8.9%; increase of nerve cells in comparison with the model group (MCAO rats; 10 mg/kg): 36.8±4.9%; increase of nerve cells in comparison with the model group (MCAO rats; 30 mg/kg): 51.7±6.6%
O=C1C[C@@H](c2ccccc2)Oc2cc(O)cc(O)c21 [(S)-pinocembrin, reference compound] | 3.00 ± 0.32 | 2.99 ± 0.61 | 2.81 ± 0.57 | 243 ± 19.5 | 240 ± 16.8 | 240.8 ± 24.3 | 1.29 ± 0.72 | 1.79 ± 0.63 | 1.59 ± 0.77 | 1.77 ± 0.70 | 15.32 ± 7.98 | 28.06 ± 12.98 | 15.78 ± 7.28 | 25.97 ± 12.75 | 81.95 ± 1.00 | 82.96 ± 0.98 | 81.87 ± 1.12 | 83.37 ± 1.27 | significant effects | not effective | effect on content of plasma fibrinogen (plasma fibrinogen; compared with the model group): no activity; effect on plasma ET-1 content (plasma ET-1; compared with the model group): no activity; LD50 (in vivo): 375 mg/kg
CC(CN1c2ccccc2Sc2cccnc21)N(C)C (racemic) [isothipendyl racemate, isothipendyl] | – | – | – | – | – | – | – | – | – | – | – | – | – | – | – | – | – | – | – | – | efficacy relative to (+)-isomer [5]: 2.5 times; efficacy relative to (−)-isomer [5]: 1.4 times
